Among the data in publication PMC6451765 (Journal of biomolecular structure & dynamics, 2013) are Ki values, retold here.

In this experiment the target is 5-HT2B (Homo sapiens, UniProt P41595). In kind it is binding.
Sequence of 5-HT2B (P41595 whole entry): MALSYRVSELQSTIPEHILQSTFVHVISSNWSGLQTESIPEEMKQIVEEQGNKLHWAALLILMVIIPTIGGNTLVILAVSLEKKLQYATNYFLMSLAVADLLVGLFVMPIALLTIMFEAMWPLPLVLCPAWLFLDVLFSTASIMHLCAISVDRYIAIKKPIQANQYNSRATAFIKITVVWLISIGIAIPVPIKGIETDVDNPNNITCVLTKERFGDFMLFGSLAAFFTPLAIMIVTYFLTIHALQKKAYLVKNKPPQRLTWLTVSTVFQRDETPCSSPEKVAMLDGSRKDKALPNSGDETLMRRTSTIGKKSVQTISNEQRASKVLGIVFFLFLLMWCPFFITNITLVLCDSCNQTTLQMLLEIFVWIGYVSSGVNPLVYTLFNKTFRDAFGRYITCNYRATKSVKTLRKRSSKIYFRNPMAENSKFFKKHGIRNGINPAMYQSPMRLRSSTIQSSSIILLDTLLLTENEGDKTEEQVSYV

As usually defined, the Ki is the dissociation constant of the complex between target and ligand, obtained from inhibition or displacement. Low readings indicate higher affinity, high ones lower affinity. The compound `FC(F)OC(Cl)C(F)(F)F` (centres unmarked) [I, isoflurane] returned a Ki of 7.78 µM.

As to `CC(C)c1cccc(C(C)C)c1O` [P, propofol], the Ki was 0.95 µM.
